{"source": "patent US10316017B2", "about": "“COT modulators and methods of use thereof” (Gilead Sciences, Inc., priority 2015, dated 2019)", "key": {"[1]": {"test_system": "TNFα production in LPS-stimulated human monocytes", "assay": "Cot Monocyte TNFα Cell Based Assay", "settings": "Homo sapiens, Monocyte, LPS-stimulated human monocytes, TNFα TR-FRET; read-out: EC50 TNF", "in_short": "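Human monocytes (5,000 cells/well) pretreated with compound for 1 hour at 37° C (0.5% DMSO), then stimulated with 50 pg/ml LPS for 4 hours. Total TNFα measured by TR-FRET after overnight antibody incubation at room temp, expressed as percent of control between unstimulated and stimulated cells.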"}, "[2]": {"target": "T1, human Cot catalytic domain (30-397 amino acids) (Homo sapiens, UniProt P41279)", "T1 construct": "Purified recombinant human Cot catalytic domain (30-397 amino acids) was purchased from Cama Biosciences; purchased Cama Biosciences (so in the source)", "T1 sequence (P41279 30-397)": "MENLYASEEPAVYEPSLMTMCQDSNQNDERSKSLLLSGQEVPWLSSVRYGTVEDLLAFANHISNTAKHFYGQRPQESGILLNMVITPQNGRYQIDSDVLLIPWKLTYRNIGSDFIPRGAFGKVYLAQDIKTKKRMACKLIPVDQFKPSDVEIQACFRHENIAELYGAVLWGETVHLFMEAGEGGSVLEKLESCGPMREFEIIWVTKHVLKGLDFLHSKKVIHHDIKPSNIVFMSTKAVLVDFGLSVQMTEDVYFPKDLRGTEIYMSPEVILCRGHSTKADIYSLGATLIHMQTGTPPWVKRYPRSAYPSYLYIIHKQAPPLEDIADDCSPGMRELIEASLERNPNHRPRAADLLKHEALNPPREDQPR", "assay": "High Throughput Cot Biochemical Assay (KinEASE TR-FRET)", "settings": "Cot KinEASE TR-FRET, 400 μM ATP; read-out: IC50 HTRF", "in_short": "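Recombinant human Cot catalytic domain (aa 30-397), 5 nM, with 1 μM STK3 peptide and 400 μM ATP in MOPS pH 7.0 buffer with MgOAc, DTT, BSA, NP-40, glycerol, 0.1% DMSO. Phosphorylated XL665-peptide detected by Eu-[…] antibody TR-FRET.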"}}, "data": [{"smiles": "Cc1c(-c2cccnc2)cccc1[C@H](Nc1cc(Cl)c2ncc(C#N)c(NCC(C)(C)C)c2c1)c1cn(C2(C(F)(F)F)CC2)nn1", "note": "[Example 1096, (S)-8-chloro-6-(((2-methyl-3-(pyridin-3-yl)phenyl)(1-(1-(trifluoromethyl)cyclopropyl)-1H-1,2,3-triazol-4-yl)methyl)amino)-4-(neopentylamino)quinoline-3-carbonitrile]", "values": [{"measurement": "EC50", "setting": "[1]", "result": 262, "unit": "nM"}, {"measurement": "IC50", "setting": "[2]", "result": 10, "unit": "nM"}]}, {"smiles": "Cc1c(-c2cnn(C)c2)cccc1[C@H](Nc1cc(Cl)c2ncc(C#N)c(NCC(C)(C)C)c2c1)c1cn(C2(C(F)(F)F)CC2)nn1", "note": "[Example 1097, (S)-8-chloro-6-(((2-methyl-3-(1-methyl-1H-pyrazol-4-yl)phenyl) (1-(1-(trifluoromethyl)cyclopropyl)-1H-1,2,3-triazol-4-yl)methyl)amino)-4-(neopentylamino)quinoline-3-carbonitrile]", "values": [{"measurement": "EC50", "setting": "[1]", "result": 166, "unit": "nM"}, {"measurement": "IC50", "setting": "[2]", "result": 9, "unit": "nM"}]}, {"smiles": "Cc1cc(C#N)ccc1[C@H](Nc1cc(Cl)c2ncc(C#N)c(NCC(C)(C)C)c2c1)c1cn(C2(C(F)F)CC2)nn1", "note": "[Example 1098, (S)-8-chloro-6-(((4-cyano-2-methylphenyl)(1-(1-(difluoromethyl)cyclopropyl)-1H-1,2,3-triazol-4-yl)methyl)amino)-4-(neopentylamino)quinoline-3-carbonitrile]", "values": [{"measurement": "EC50", "setting": "[1]", "result": 73, "unit": "nM"}, {"measurement": "IC50", "setting": "[2]", "result": 23, "unit": "nM"}]}, {"smiles": "Cc1c(C#N)cccc1[C@H](Nc1cc(Cl)c2ncc(C#N)c(NCC(C)(C)C)c2c1)c1cn(C2(CF)CC2)nn1", "note": "[Example 1100, (S)-8-chloro-6-(((3-cyano-2-methylphenyl)(1-(1-(fluoromethyl)cyclopropyl)-1H-1,2,3-triazol-4-yl)methyl)amino)-4-(neopentylamino)quinoline-3-carbonitrile]", "values": [{"measurement": "EC50", "setting": "[1]", "result": 45, "unit": "nM"}, {"measurement": "IC50", "setting": "[2]", "result": 4, "unit": "nM"}]}, {"smiles": "Cc1c(C#N)cccc1[C@H](Nc1cc(Cl)c2ncc(C#N)c(NCC(C)(C)C)c2c1)c1cn(C2(C)CC2)nn1", "note": "[Example 1101, (S)-8-chloro-6-(((3-cyano-2-methylphenyl)(1-(1-methylcyclopropyl)-1H-1,2,3-triazol-4-yl)methyl)amino)-4-(neopentylamino)quinoline-3-carbonitrile]", "values": [{"measurement": "EC50", "setting": "[1]", "result": 27, "unit": "nM"}, {"measurement": "IC50", "setting": "[2]", "result": 3, "unit": "nM"}]}, {"smiles": "Cc1c(C#N)cccc1[C@H](Nc1cc(Cl)c2ncc(C#N)c(NCC(C)(C)C)c2c1)c1cn(C(CF)CF)nn1", "note": "[Example 1102, (S)-8-chloro-6-(((3-cyano-2-methylphenyl)(1-(1,3-difluoropropan-2-yl)-1H-1,2,3-triazol-4-yl)methyl)amino)-4-(neopentylamino)quinoline-3-carbonitrile]", "values": [{"measurement": "EC50", "setting": "[1]", "result": 63, "unit": "nM"}, {"measurement": "IC50", "setting": "[2]", "result": 8, "unit": "nM"}]}, {"smiles": "Cc1c(C#N)cccc1[C@H](Nc1cc(Cl)c2ncc(C#N)c(NCC(C)(C)C)c2c1)c1cn([C@@H](C)CF)nn1", "note": "[Example 1103, 8-chloro-6-(((S)-(3-cyano-2-methylphenyl)(1-((S)-1-fluoropropan-2-yl)-1H-1,2,3-triazol-4-yl)methyl)amino)-4-(neopentylamino)quinoline-3-carbonitrile]", "values": [{"measurement": "EC50", "setting": "[1]", "result": 26, "unit": "nM"}, {"measurement": "IC50", "setting": "[2]", "result": 5, "unit": "nM"}]}, {"smiles": "Cc1c(C#N)cccc1[C@H](Nc1cc(Cl)c2ncc(C#N)c(NCC(C)(C)C(F)(F)F)c2c1)c1cn(C2(C)CC2)nn1", "note": "[Example 1104, (S)-8-chloro-6-(((3-cyano-2-methylphenyl)(1-(1-methylcyclopropyl)-1H-1,2,3-triazol-4-yl)methyl)amino)-4-((3,3,3-trifluoro-2,2-dimethylpropyl)amino)quinoline-3-carbonitrile]", "values": [{"measurement": "EC50", "setting": "[1]", "result": 53, "unit": "nM"}, {"measurement": "IC50", "setting": "[2]", "result": 3, "unit": "nM"}]}, {"smiles": "Cc1c(C#N)cccc1[C@H](Nc1cc(Cl)c2ncc(C#N)c(NCC(C)(C)C(F)(F)F)c2c1)c1cn(C2(C3CC3)CC2)nn1", "note": "[Example 1105, (S)-6-(((1-([1,1'-bi(cyclopropan)]-1-yl)-1H-1,2,3-triazol-4-yl)(3-cyano-2-methylphenyl)methyl)amino)-8-chloro-4-((3,3,3-trifluoro-2,2-dimethylpropyl)amino)quinoline-3-carbonitrile]", "values": [{"measurement": "EC50", "setting": "[1]", "result": 90, "unit": "nM"}, {"measurement": "IC50", "setting": "[2]", "result": 5, "unit": "nM"}]}, {"smiles": "Cc1c(C#N)cccc1[C@H](Nc1cc(Cl)c2ncc(C#N)c(NCC(C)(C)C(F)(F)F)c2c1)c1cn([C@@H](C)CF)nn1", "note": "[Example 1106, 8-chloro-6-(((S)-(3-cyano-2-methylphenyl)(1-((S)-1-fluoropropan-2-yl)-1H-1,2,3-triazol-4-yl)methyl)amino)-4-((3,3,3-trifluoro-2,2-dimethylpropyl)amino) quinoline-3-carbonitrile]", "values": [{"measurement": "EC50", "setting": "[1]", "result": 76, "unit": "nM"}, {"measurement": "IC50", "setting": "[2]", "result": 5, "unit": "nM"}]}, {"smiles": "Cc1c(C#N)cccc1[C@H](Nc1cc(Cl)c2ncc(C#N)c(NCC(C)(C)C(F)(F)F)c2c1)c1cn(C23CC(C2)C3)nn1", "note": "[Example 1107, (S)-6-(((1-(bicyclo[1.1.1]pentan-1-yl)-1H-1,2,3-triazol-4-yl)(3-cyano-2-methylphenyl)methyl)amino)-8-chloro-4-((3,3,3-trifluoro-2,2-dimethylpropyl)amino) quinoline-3-carbonitrile]", "values": [{"measurement": "EC50", "setting": "[1]", "result": 65, "unit": "nM"}, {"measurement": "IC50", "setting": "[2]", "result": 3, "unit": "nM"}]}, {"smiles": "Cc1c(C#N)cccc1[C@H](Nc1cc(Cl)c2ncc(C#N)c(NCC(C)(C)C)c2c1)c1cn(C23CC(C2)C3)nn1", "note": "[Example 1108, (S)-6-(((1-(bicyclo[1.1.1]pentan-1-yl)-1H-1,2,3-triazol-4-yl)(3-cyano-2-methylphenyl)methyl)amino)-8-chloro-4-(neopentylamino) quinoline-3-carbonitrile]", "values": [{"measurement": "EC50", "setting": "[1]", "result": 31, "unit": "nM"}, {"measurement": "IC50", "setting": "[2]", "result": 4, "unit": "nM"}]}, {"smiles": "Cc1c(C#N)cccc1[C@H](Nc1cc(Cl)c2ncc(C#N)c(NCC(C)(C)C)c2c1)c1cn(C2(C3CC3)CC2)nn1", "note": "[Example 1109, (S)-6-(((1-([1,1'-bi(cyclopropan)]-1-yl)-1H-1,2,3-triazol-4-yl)(3-cyano-2-methylphenyl)-methyl)amino)-8-chloro-4-(neopentylamino)quinoline-3-carbonitrile]", "values": [{"measurement": "EC50", "setting": "[1]", "result": 57, "unit": "nM"}, {"measurement": "IC50", "setting": "[2]", "result": 5, "unit": "nM"}]}, {"smiles": "Cc1nnc(C2(n3cc([C@@H](Nc4cc(Cl)c5ncc(C#N)c(NCC(C)(C)C)c5c4)c4ccccc4Cl)nn3)CC2)o1", "note": "[Example 1110, (S)-8-chloro-6-(((2-chlorophenyl)(1-(1-(5-methyl-1,3,4-oxadiazol-2-yl)cyclopropyl)-1H-1,2,3-triazol-4-yl)methyl)amino)-4-(neopentylamino)quinoline-3-carbonitrile]", "values": [{"measurement": "EC50", "setting": "[1]", "result": 79, "unit": "nM"}, {"measurement": "IC50", "setting": "[2]", "result": 26, "unit": "nM"}]}, {"smiles": "[2H]C(Nc1cc(C#N)c2ncc(C#N)c(NCC(C)(C)C)c2c1)(c1cn(C2(C(F)F)CC2)nn1)c1ccccc1Cl", "note": "(stereo not drawn) [Example 1111, 6-(((2-chlorophenyl)(1-(1-(difluoromethyl)cyclopropyl)-1H-1,2,3-triazol-4-yl)methyl-d)amino)-4-(neopentylamino)-quinoline-3,8-dicarbonitrile]", "values": [{"measurement": "EC50", "setting": "[1]", "result": 98, "unit": "nM"}, {"measurement": "IC50", "setting": "[2]", "result": 13, "unit": "nM"}]}, {"smiles": "CC(C)(C)CNc1c(C#N)cnc2c(Cl)cc(N[C@H](c3cn(C4(C(F)(F)F)CC4)nn3)c3cccc(C(=O)O)c3F)cc12", "note": "[Example 1112, (S)-3-(((8-chloro-3-cyano-4-(neopentylamino)quinolin-6-yl)amino)(1-(1-(trifluoromethyl)cyclopropyl)-1H-1,2,3-triazol-4-yl)methyl)-2-fluorobenzoic acid]", "values": [{"measurement": "EC50", "setting": "[1]", "result": "≥ 1000", "unit": "nM"}, {"measurement": "IC50", "setting": "[2]", "result": 76, "unit": "nM"}]}, {"smiles": "CN(C)C(=O)c1cccc([C@H](Nc2cc(Cl)c3ncc(C#N)c(NCC(C)(C)C)c3c2)c2cn(C3(C(F)(F)F)CC3)nn2)c1F", "note": "[Example 1113, (S)-3-(((8-chloro-3-cyano-4-(neopentylamino)quinolin-6-yl)amino)(1-(1-(trifluoromethyl)cyclopropyl)-1H-1,2,3-triazol-4-yl)methyl)-2-fluoro-N,N-dimethylbenzamide]", "values": [{"measurement": "EC50", "setting": "[1]", "result": 444, "unit": "nM"}, {"measurement": "IC50", "setting": "[2]", "result": 22, "unit": "nM"}]}, {"smiles": "CNC(=O)c1cccc([C@H](Nc2cc(Cl)c3ncc(C#N)c(NCC(C)(C)C)c3c2)c2cn(C3(C(F)(F)F)CC3)nn2)c1F", "note": "[Example 1114, (S)-3-(((8-chloro-3-cyano-4-(neopentylamino)quinolin-6-yl)amino)(1-(1-(trifluoromethyl)cyclopropyl)-1H-1,2,3-triazol-4-yl)methyl)-2-fluoro-N-methylbenzamide]", "values": [{"measurement": "EC50", "setting": "[1]", "result": 408, "unit": "nM"}, {"measurement": "IC50", "setting": "[2]", "result": 5, "unit": "nM"}]}, {"smiles": "CC(C)(C)CNc1c(C#N)cnc2c(Cl)cc(N[C@H](c3cn(C4(C(F)(F)F)CC4)nn3)c3cccc(C(N)=O)c3F)cc12", "note": "[Example 1115, (S)-3-(((8-chloro-3-cyano-4-(neopentylamino)quinolin-6-yl)amino)(1-(1-(trifluoromethyl)cyclopropyl)-1H-1,2,3-triazol-4-yl)methyl)-2-fluorobenzamide]", "values": [{"measurement": "EC50", "setting": "[1]", "result": 176, "unit": "nM"}, {"measurement": "IC50", "setting": "[2]", "result": 6, "unit": "nM"}]}, {"smiles": "CNC(=O)c1cc([C@H](Nc2cc(Cl)c3ncc(C#N)c(NCC(C)(C)C)c3c2)c2cn(C3(C(F)(F)F)CC3)nn2)ccc1F", "note": "[Example 1116, (S)-5-(((8-chloro-3-cyano-4-(neopentylamino)quinolin-6-yl)amino)(1-(1-(trifluoromethyl)cyclopropyl)-1H-1,2,3-triazol-4-yl)methyl)-2-fluoro-N-methylbenzamide]", "values": [{"measurement": "EC50", "setting": "[1]", "result": "≥ 1000", "unit": "nM"}, {"measurement": "IC50", "setting": "[2]", "result": 38, "unit": "nM"}]}, {"smiles": "CC(C)(C)CNc1c(C#N)cnc2c(Cl)cc(N[C@@H](c3ccc(F)c(C(N)=O)c3)c3cn(C4(C(F)(F)F)CC4)nn3)cc12", "note": "[Example 1117, (S)-5-(((8-chloro-3-cyano-4-(neopentylamino)quinolin-6-yl)amino)(1-(1-(trifluoromethyl)cyclopropyl)-1H-1,2,3-triazol-4-yl)methyl)-2-fluorobenzamide]", "values": [{"measurement": "EC50", "setting": "[1]", "result": 561, "unit": "nM"}, {"measurement": "IC50", "setting": "[2]", "result": 29, "unit": "nM"}]}]}
